Measured values published in patent US7786088B2, “Targeting vector to the urokinase plasminogen activator receptor” (University of Iowa Research Foundation, priority 2000, dated 2010).

Assays:
human airway epithelia [1] = assay: fluid phase endocytosis, uptake of Texas Red dextran; type: cell-based; conditions: 0.15 μM peptide applied to apical surface, FIG. 4
Description: B. Assay for Fluid Phase Endocytosis: Cells were chilled on ice for 15 minutes and then incubated with […] uPA or 0.15 μM u7-peptide (SEQ ID NO:1) added to the apical surface for 30 minutes at 4° C. Following 3 washes in PBS, cells were incubated with 0.5 mg/ml Texas Red-labeled fixable dextran (3,000 MW, Molecular Probes, Eugene, Oreg.) for 10 minutes at 37° C. Following 3 washes in PBS, cells were fixed with 4% paraformaldehyde, mounted onto class slides with Vectashield (Vector Laboratories, Inc., Burlingame, Calif.), and viewed by fluorescence microscopy. Control cells were incubated with Texas Red-labeled dextran alone to measure basal levels of endocytosis. Monkey tracheal explants were assayed as described for primary cell cultures. To evaluate time-dependent changes, cells were treated as described above with uPA (50 nM) followed by incubations in Texas Red dextran for 5, 10, 30 or 60 minutes at 37° C. […]
B. Effect of uPA on Fluid Phase Endocytosis in Human Airway Epithelia: Stimulation of endocytosis by uPA was determined by measuring the uptake of Texas Red-conjugated dextran, a fluid phase marker. […]

human airway epithelia [2] = assay: gene transfer by adenovirus:CaPi coprecipitate (β-galactosidase activity); type: cell-based
Description: B. Evaluation of Gene Transfer: The apical surface of human airway epithelia was washed once with PBS. Adenovirus was applied at a multiplicity of infection (MOI) of 50 to the apical surface for 30 minutes at 37° C. Adenovirus was applied either alone or in a CaPi coprecipitate as previously described by Fasbender et al., J. Clin. Invest. 102:184-193 (1998) and Lee et al., Hum. Gene Ther. 10:603-13 (1999) (incorporated herein by reference). Following 3 washes, cells were returned to the incubator and assayed for gene transfer 48 hours later. AAV2 was applied at an MOI<1 to the apical surface for 30 minutes at 37° C. AAV2 was applied either alone or on a CaPi coprecipitate formed as previously described by Fasbender et al. and Lee et al. for adenovirus. Following 3 washes, cells were returned to the incubator and assayed for gene transfer 14 days later. Total β-galactosidase activity was measured using a commercially available technique (Galacto-Light, Topix, Bedford, Mass.).

CF airway epithelia = assay: cAMP-stimulated short-circuit current after Ad2/CFTR-16:CaPi gene transfer; type: cell-based, human; conditions: FIG. 5C; for correction of Cl− channel defect (cAMP-stimulated current): CF airway epithelia, Ad2/CFTR-16 in CaPi coprecipitate
Description: C. Measurement of Transepithelial Electrical Properties: Epithelia were mounted in modified Ussing chambers (Jim's Instruments, Iowa City, Iowa) and bathed with Ringer's solution on their submucosal side (135 mM NaCl, 2.4 K2HPO4, 0.6 mM […], 1.2 mM CaCl2, 1.2 mM MgCl2, 5 mM Hepes, pH 7.4 and 10 mM dextrose). The mucosal surface was bathed in the identical solution, except that 135 mM NaGluconate replaced the 135 mM NaCl. In this way, a transepithelial Cl^− concentration gradient was established in order to magnify changes in Cl^− transport. The transepithelial Na^+ transport was blocked with mucosal amiloride (10 μM). Mucosal DIDS (100 μM) blocked non-CFTR Cl^− transport. The cAMP agonists, forskolin (10 μM) and IBMX (100 μM) were applied to both solutions to stimulate transepithelial Cl^− transport via CFTR.
The ability of uPA to enhance gene transfer and expression of CFTR in differentiated CF airway epithelia was also tested.

human airway epithelia [3] = assay: tight junction integrity measured by transepithelial resistance; conditions: following uPA or u7 treatment
Description: D. uPA Enhancement of Gene Transfer: The ability of uPA to enhance gene transfer by nonspecifically bound vector was tested.

Substance | stimulation of fluid phase endocytosis (human airway epithelia [1]) | increase in gene transfer compared to the coprecipitate alone (human airway epithelia [2]; apical application before CaPi:adenovirus coprecipitates (uPA 50 nM), assayed 48 hours later, FIG. 5A) | effect on gene transfer by CaPi coprecipitate (in words) (human airway epithelia [2]; compared with uPA) | correction of Cl− channel defect (cAMP-stimulated current) (CF airway epithelia) | correction of Cl− channel defect (cAMP-stimulated current) (CF airway epithelia; listed as u7 peptide) | uptake of a vector expressing CFTR (CF airway epithelia; cystic fibrosis (CF) airway epithelia) | transepithelial resistance (human airway epithelia [3])
CLNGGTC (listed as Homo sapiens) [u7-peptide] | stimulated fluid phase endocytosis | 8-10 fold | effect similar to uPA | further enhanced the correction | to a greater extent than the full length uPA | enhanced the uptake | did not change
CTCGNCL [scrambled peptide, reference compound] | did not |  |  |  |  |  | 
